Here are results for three compounds from PMC11326893, “A comprehensive measure of Golgi sphingolipid flux using NBD C6-ceramide: evaluation of sphingolipid inhibitors” (Journal of Lipid Research, 2024).

Assay [1] has as its target T1, ceramide kinase (CERK) (Homo sapiens, UniProt Q8TCT0).
T1 sequence (Q8TCT0 1-537): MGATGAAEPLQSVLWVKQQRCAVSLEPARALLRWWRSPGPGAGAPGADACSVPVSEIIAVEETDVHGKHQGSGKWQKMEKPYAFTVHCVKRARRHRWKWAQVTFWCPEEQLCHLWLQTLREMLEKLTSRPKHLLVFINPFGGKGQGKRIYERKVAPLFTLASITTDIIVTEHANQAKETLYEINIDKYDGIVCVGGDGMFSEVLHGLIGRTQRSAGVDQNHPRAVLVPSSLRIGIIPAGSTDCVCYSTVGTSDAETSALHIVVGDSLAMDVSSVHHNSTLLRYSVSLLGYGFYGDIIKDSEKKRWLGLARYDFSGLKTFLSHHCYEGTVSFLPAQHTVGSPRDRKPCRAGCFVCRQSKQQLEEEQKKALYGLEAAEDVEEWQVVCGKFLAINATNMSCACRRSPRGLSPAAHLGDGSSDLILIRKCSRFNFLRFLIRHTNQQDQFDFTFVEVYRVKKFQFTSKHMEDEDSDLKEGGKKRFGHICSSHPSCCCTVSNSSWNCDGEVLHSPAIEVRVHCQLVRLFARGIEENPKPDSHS
In words: NBD-C6-ceramide to NBD-C1P conversion (HPLC, fluorescence) in MCF7 cells overexpressing CERK. The format is cell-based.

For assay [2], the target named is T1, ceramide kinase (CERK). The experiment in a line: in vitro activity assay with purified recombinant CERK, NBD-C6-Cer substrate; only about […] decrease at […]. It is filed as biochemical. Also noted: full-length human CERK. Conditions: read-out: % decrease in activity at 50 μM and 100 μM.
For assay [3], the target named is T2, glucosylceramide synthase (GCS) (Homo sapiens, UniProt Q16739).
T2 construct: gene UGCG
T2 sequence (Q16739 1-394): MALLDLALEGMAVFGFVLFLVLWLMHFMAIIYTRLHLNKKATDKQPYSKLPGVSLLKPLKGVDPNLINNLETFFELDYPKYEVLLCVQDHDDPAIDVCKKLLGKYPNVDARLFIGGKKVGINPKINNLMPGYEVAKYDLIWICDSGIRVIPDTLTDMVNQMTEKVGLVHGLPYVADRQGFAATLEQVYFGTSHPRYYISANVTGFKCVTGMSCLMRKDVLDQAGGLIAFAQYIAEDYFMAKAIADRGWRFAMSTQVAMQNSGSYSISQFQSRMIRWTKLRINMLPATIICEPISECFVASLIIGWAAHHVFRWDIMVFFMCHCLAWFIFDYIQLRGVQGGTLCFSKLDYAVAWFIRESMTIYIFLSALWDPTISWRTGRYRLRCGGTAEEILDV
The experiment in a line: NBD-C6-ceramide to NBD-HexCer conversion in MCF7 cells, […] eliglustat. The format is cell-based.

Structures are written as SMILES. Where only a bound is given, the exact number is not on record here.

What is called IC50 is the point on the concentration scale where inhibition reaches its midpoint. `O=C(Nc1nc2ccc(NC(=O)C34CC5CC(CC(C5)C3)C4)cc2s1)c1ccccc1` [NVP-231] gave an IC50 at ceramide kinase (CERK) [1] of less than 10 nM.

Turning to `CCCCCCCCCC(=O)NC(CN1CCOCC1)C(O)c1ccccc1` (stereo not drawn) [PDMP, 1-phenyl-2-decanoylamino-3-morpholino-1-propanol], at ceramide kinase (CERK) [2], the inhibition at 50 µM came out at 20%.

For the compound `CCCCCCCC(=O)N[C@H](CN1CCCC1)[C@H](O)c1ccc2c(c1)OCCO2` [eliglustat], the “NBD-C6-ceramide to NBD-HexCer conversion in MCF7 cells, 50 nM eliglustat” value in assay [3] is “Inhibition with eliglustat and PDMP both nearly eliminated the production of NBD-C6-HexCer”.
